The target of one assay is BRM (Homo sapiens, UniProt P51531). Kind of assay: ATPase catalytic activity assay of BRM (ADP-Glo). It is filed as biochemical. The note with it: for IC50: read-out: BRM IC50 (μM)*. In short, it runs like this: (§1)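 Luminescent ADP-Glo readout of ADP generated by ATP hydrolysis. Post-reaction: ATP depletion reagent, RT 40 min; detection reagent converting ADP→ATP, RT 60 min; luminescence read.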
In general terms: In ADP-Glo the light output rises with the ADP produced.

Another assay deals with BRG-1 (Homo sapiens, UniProt P51532). Briefly: ATPase catalytic activity assay of BRG-1 (ADP-Glo). It is filed as biochemical. The note with it: ATPase catalytic activity, ADP-Glo; for IC50: read-out: BRG1 IC50 (μM)*; for Emax: read-out: BRG1 Max % Inhibition. Put shortly: as §1

The source of these data is patent US12685735B2 (Foghorn Therapeutics Inc., priority 2020, dated 2026).

Molecules are shown by their SMILES. Where two headings read alike, the source gives them in different places.

The IC50 is the point on the concentration scale where inhibition reaches its midpoint.

Chain of BRM (P51531 whole entry): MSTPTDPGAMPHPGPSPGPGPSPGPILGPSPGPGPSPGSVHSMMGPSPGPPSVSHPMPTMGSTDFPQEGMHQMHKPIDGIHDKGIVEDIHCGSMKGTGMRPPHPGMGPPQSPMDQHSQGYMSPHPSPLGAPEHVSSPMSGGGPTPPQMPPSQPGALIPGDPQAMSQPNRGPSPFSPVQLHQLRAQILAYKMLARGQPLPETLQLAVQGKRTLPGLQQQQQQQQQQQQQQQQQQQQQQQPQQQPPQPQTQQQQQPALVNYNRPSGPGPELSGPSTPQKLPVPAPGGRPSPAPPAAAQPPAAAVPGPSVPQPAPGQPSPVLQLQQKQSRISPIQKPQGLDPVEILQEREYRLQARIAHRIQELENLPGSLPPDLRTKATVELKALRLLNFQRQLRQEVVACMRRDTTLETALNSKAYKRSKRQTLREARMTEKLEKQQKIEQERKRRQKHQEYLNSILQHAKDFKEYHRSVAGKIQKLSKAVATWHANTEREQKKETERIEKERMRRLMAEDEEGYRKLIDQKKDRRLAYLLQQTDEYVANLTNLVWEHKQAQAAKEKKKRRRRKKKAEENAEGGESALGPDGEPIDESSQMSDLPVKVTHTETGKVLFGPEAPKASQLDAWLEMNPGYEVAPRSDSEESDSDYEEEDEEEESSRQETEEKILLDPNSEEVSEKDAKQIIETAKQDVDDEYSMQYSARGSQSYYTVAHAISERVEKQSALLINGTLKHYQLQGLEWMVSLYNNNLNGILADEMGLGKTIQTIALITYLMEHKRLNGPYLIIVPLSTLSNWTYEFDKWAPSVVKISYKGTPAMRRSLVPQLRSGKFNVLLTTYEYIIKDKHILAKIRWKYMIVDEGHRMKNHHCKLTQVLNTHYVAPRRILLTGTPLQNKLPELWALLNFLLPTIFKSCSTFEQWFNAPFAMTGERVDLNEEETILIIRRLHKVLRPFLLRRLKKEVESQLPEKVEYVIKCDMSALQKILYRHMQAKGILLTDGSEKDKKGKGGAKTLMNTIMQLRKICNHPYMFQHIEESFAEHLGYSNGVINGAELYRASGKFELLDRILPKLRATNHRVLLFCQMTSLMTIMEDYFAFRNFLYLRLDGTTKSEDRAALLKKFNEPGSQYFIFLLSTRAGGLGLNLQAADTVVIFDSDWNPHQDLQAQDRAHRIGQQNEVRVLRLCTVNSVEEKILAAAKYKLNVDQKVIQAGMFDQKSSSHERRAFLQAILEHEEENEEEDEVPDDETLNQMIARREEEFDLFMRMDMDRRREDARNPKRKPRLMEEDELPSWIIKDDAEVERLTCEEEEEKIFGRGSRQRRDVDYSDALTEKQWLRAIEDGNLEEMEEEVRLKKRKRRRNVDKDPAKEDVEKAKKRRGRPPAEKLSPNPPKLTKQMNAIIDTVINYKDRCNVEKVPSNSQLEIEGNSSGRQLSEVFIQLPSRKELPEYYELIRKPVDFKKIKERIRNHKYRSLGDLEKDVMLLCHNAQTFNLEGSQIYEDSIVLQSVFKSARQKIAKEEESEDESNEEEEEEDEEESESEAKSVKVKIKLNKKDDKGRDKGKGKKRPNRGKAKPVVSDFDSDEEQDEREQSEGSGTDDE
Chain of BRG-1 (P51532 whole entry): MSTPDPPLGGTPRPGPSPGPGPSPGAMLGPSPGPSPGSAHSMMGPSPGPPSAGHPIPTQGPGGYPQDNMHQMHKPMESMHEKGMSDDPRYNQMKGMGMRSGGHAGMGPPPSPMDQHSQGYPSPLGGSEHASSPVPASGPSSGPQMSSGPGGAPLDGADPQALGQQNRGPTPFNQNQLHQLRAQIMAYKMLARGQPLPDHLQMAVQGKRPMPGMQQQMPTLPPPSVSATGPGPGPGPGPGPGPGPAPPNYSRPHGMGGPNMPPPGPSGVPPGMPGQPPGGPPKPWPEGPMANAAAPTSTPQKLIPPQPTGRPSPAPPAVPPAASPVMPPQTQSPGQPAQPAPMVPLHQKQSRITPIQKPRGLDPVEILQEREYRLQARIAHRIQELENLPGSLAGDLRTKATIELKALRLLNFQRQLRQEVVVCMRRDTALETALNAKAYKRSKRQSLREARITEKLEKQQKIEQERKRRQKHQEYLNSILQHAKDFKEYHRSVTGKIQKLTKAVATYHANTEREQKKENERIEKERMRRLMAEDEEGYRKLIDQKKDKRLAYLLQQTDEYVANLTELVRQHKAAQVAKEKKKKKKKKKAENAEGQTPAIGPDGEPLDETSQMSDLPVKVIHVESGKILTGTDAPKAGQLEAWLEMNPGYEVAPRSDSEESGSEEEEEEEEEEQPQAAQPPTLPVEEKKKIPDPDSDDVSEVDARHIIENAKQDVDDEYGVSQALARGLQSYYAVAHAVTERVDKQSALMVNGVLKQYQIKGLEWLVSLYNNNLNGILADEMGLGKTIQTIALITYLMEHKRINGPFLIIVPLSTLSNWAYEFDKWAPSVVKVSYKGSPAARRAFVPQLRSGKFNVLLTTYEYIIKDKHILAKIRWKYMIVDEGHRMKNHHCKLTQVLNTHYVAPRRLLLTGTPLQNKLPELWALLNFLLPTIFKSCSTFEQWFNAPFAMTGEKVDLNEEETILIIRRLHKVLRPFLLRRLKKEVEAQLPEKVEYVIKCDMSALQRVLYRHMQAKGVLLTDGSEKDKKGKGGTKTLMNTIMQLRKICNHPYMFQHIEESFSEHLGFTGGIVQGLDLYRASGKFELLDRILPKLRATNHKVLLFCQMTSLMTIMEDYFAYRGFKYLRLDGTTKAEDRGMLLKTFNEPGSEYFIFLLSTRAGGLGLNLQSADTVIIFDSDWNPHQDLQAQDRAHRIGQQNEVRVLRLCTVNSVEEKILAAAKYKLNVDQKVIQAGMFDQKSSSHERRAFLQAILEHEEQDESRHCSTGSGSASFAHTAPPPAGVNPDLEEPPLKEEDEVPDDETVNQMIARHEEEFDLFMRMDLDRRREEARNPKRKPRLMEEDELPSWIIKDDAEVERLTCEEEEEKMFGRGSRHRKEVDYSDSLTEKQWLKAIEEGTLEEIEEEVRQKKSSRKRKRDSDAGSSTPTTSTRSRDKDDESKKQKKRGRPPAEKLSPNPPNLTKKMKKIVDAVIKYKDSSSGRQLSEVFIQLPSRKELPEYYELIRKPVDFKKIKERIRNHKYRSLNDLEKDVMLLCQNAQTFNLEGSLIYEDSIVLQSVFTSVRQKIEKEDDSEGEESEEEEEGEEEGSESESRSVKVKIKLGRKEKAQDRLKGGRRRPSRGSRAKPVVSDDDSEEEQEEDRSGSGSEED

For the compound `C[C@@H]1CN(c2cccc(-c3csc(NC(=O)CNC(=O)c4ccc5c(c4)[C@]4(CCC[C@@H]4O)CC5)n3)c2)C[C@H](C)O1` [Compound 189, (1S,2S)-N-(2-((4-(3-((cis)-2,6-dimethylmorpholino)phenyl)thiazol-2-yl)amino)-2-oxoethyl)-2-hydroxy-2′,3′-dihydrospiro[cyclopentane-1,1′-indene]-6′-carboxamide], at BRM, the “BRM Max % Inhibition” value is over 90% and the IC50 lay in the range of 0.1 to 1 µM. At BRG-1, the IC50 lay in the range of 1 to 5 µM and the Emax was over 50%.

As to `C[C@@H]1CN(c2cccc(-c3csc(NC(=O)CNC(=O)c4cccc(C5(CO)COC5)c4)n3)c2)C[C@H](C)O1` [Compound 168, N-(2-((4-(3-((cis)-2,6-dimethylmorpholino)phenyl)thiazol-2-yl)amino)-2-oxoethyl)-3-(3-(hydroxymethyl)oxetan-3-yl)benzamide], on BRM, the “BRM Max % Inhibition” value is given as over 90% and the IC50 is 0.1 to 1 µM. On BRG-1, the 50% inhibitory concentration (IC50) was over 5 µM and the Emax is over 50%.

For `C[C@@]1(CO)CCc2ccc(C(=O)NCC(=O)Nc3nc(-c4cccc(-c5cnccn5)n4)cs3)cc21` [Compound 167, (R)-3-(hydroxymethyl)-3-methyl-N-(2-oxo-2-((4-(6-(pyrazin-2-yl)pyridin-2-yl)thiazol-2-yl)amino)ethyl)-2,3-dihydro-1H-indene-5-carboxamide], at BRM, the “BRM Max % Inhibition” value was over 95% and the half-inhibitory concentration (IC50) lay in the range of 0.1 to 1 µM. Moreover, at BRG-1, the 50% inhibitory concentration (IC50) is over 5 µM and the Emax is over 50%.

For the compound `O=C(CNC(=O)c1ccc2c(c1)S(=O)(=O)CCCC2)Nc1nc(-c2cccc(-c3ccncc3)c2)cs1` [Compound 129, 1,1-dioxo-N-[2-oxo-2-[[4-[3-(4-pyridyl)phenyl]thiazol-2-yl]amino]ethyl]-2,3,4,5-tetrahydro-1benzothiepine-8-carboxamide], at BRM, the “BRM Max % Inhibition” value is recorded as over 95% and the IC50 was under 0.1 µM. On BRG-1, the IC50 was under 0.1 µM and the Emax is over 95%.

Consider `COC(=O)N1CCC[C@@H](c2csc(NC(=O)CNC(=O)c3ccc4c(c3)[C@](C)(C#N)COC4)n2)C1` [Compound 355, methyl (R)-3-(2-(2-((R)-4-cyano-4-methylisochromane-6-carboxamido)acetamido)thiazol-4-yl)piperidine-1-carboxylate], for which, on BRM, the “BRM Max % Inhibition” value was over 95% and the IC50 was under 0.1 µM. On BRG-1, the half-maximal inhibitory concentration (IC50) lay in the range of 0.1 to 1 µM and the Emax is over 95%.

`COc1nccc(-c2cccc(-c3csc(NC(=O)CNC(=O)c4cccc(S(=O)(=O)C(C)C)c4)n3)n2)n1` [Compound 119, 3-isopropylsulfonyl-N-[2-[[4-[6-(2-methoxypyrimidin-4-yl)-2-pyridyl]thiazol-2-yl]amino]-2-oxo-ethyl]benzamide]: at BRM, the “BRM Max % Inhibition” value is listed as over 95% and the IC50 is under 0.1 µM. Besides, on BRG-1, the IC50 fell in the range of 0.1 to 1 µM and the Emax is over 80%.

For the compound `Cc1cncc(-c2cccc(-c3csc(NC(=O)CNC(=O)c4ccc5c(c4)[C@](C)(CO)CC5)n3)n2)n1` [Compound 163, (R)-3-(hydroxymethyl)-3-methyl-N-(2-((4-(6-(6-methylpyrazin-2-yl)pyridin-2-yl)thiazol-2-yl)amino)-2-oxoethyl)-2,3-dihydro-1H-indene-5-carboxamide], at BRM, the “BRM Max % Inhibition” value is over 90% and the concentration for half-maximal inhibition (IC50) was under 0.1 µM. Moreover, on BRG-1, the IC50 lay in the range of 1 to 5 µM and the Emax is over 40%.

For the compound `Cn1ccc2ccc(-c3csc(NC(=O)CNC(=O)c4cccc(C(C)(C)CN)c4)n3)cc2c1=O` [Compound 67, 3-(1-amino-2-methylpropan-2-yl)-N-(2-((4-(2-methyl-1-oxo-1,2-dihydroisoquinolin-7-yl)thiazol-2-yl)amino)-2-oxoethyl)benzamide], at BRM, the “BRM Max % Inhibition” value is over 70% and the IC50 lay within 1 to 5 µM. For the same compound, at BRG-1, the IC50 was 1 to 5 µM and the Emax was over 40%.

As for `CC1(CO)CCc2ccc(C(=O)NCC(=O)Nc3nc(-c4ccn5ccnc5c4)cs3)cc21` (stereo in doubt) [Compound 178, (R)-3-(hydroxymethyl)-N-(2-((4-(imidazo[1,2-a]pyridin-7-yl)thiazol-2-yl)amino)-2-oxoethyl)-3-methyl-2,3-dihydro-1H-indene-5-carboxamide], at BRM, the “BRM Max % Inhibition” value was over 80% and the IC50 was in the range of 0.1 to 1 µM. At BRG-1, the IC50 is over 5 µM and the Emax was over 50%.

Consider `C[C@@H]1CN(c2cccc(-c3csc(NC(=O)CNC(=O)c4ccc5c(c4)[C@H](C)COC5)n3)n2)C[C@H](C)O1` [Compound 321, (S)-N-(2-((4-(6-((cis)-2,6-dimethylmorpholino)pyridin-2-yl)thiazol-2-yl)amino)-2-oxoethyl)-4-methylisochromane-6-carboxamide], for which, at BRM, the “BRM Max % Inhibition” value was over 90% and the IC50 was under 0.1 µM. For the same compound, at BRG-1, the IC50 fell in the range of 0.1 to 1 µM and the Emax was over 90%.

Take `CC1(C)c2cc(C(=O)NCC(=O)Nc3nc(-c4cccc(-c5ccncc5)c4)cs3)ccc2C[C@@H]1N` [Compound 250, (S)-2-amino-3,3-dimethyl-N-(2-oxo-2-((4-(3-(pyridin-4-yl)phenyl)thiazol-2-yl)amino)ethyl)-2,3-dihydro-1H-indene-5-carboxamide]: at BRM, the “BRM Max % Inhibition” value is on record as over 70% and the concentration for half-maximal inhibition (IC50) fell in the range of 1 to 5 µM. Moreover, at BRG-1, the half-maximal inhibitory concentration (IC50) was over 5 µM and the Emax is over 50%.

As to `C[C@@]1(C#N)COCc2ccc(C(=O)NCC(=O)Nc3nc(-c4cc(F)c5c(c4)OCO5)cs3)cc21` [Compound 339, (R)-4-cyano-N-(2-((4-(7-fluorobenzo[d][1,3]dioxol-5-yl)thiazol-2-yl)amino)-2-oxoethyl)-4-methylisochromane-6-carboxamide], on BRM, the “BRM Max % Inhibition” value is given as over 95% and the concentration for half-maximal inhibition (IC50) was under 0.1 µM. For the same compound, at BRG-1, the IC50 is under 0.1 µM and the Emax is over 95%.

As for `Cc1nccc(-c2cccc(-c3csc(NC(=O)CNC(=O)c4ccc(C)c(C(C)(C)CN)c4)n3)n2)n1` [Compound 206, 3-(2-amino-1,1-dimethyl-ethyl)-4-methyl-N-[2-[[4-[6-(2-methylpyrimidin-4-yl)-2-pyridyl]thiazol-2-yl]amino]-2-oxo-ethyl]benzamide], on BRM, the “BRM Max % Inhibition” value is over 95% and the IC50 is 0.1 to 1 µM. In addition, at BRG-1, the half-inhibitory concentration (IC50) was 1 to 5 µM and the Emax is over 70%.

For `C[C@@]1(F)COCc2ccc(C(=O)NCC(=O)Nc3nc(C4CCOCC4)cs3)cc21` [Compound 297, (S)-4-fluoro-4-methyl-N-(2-oxo-2-((4-(tetrahydro-2H-pyran-4-yl)thiazol-2-yl)amino)ethyl)isochromane-6-carboxamide], at BRM, the “BRM Max % Inhibition” value is on record as over 95% and the IC50 lay in the range of 0.1 to 1 µM. Moreover, on BRG-1, the IC50 was in the range of 1 to 5 µM and the Emax is over 85%.

With `C[C@@H]1CN(c2cccc(-c3csc(NC(=O)CNC(=O)c4ccc5c(c4)C(C)(C#N)CNC5)n3)c2)C[C@H](C)O1` (stereo in doubt) [Compound 287, (S)-4-cyano-N-(2-((4-(3-((cis)-2,6-dimethylmorpholino)phenyl)thiazol-2-yl)amino)-2-oxoethyl)-4-methyl-1,2,3,4-tetrahydroisoquinoline-6-carboxamide], at BRM, the “BRM Max % Inhibition” value was over 95% and the half-inhibitory concentration (IC50) was under 0.1 µM. At BRG-1, the IC50 is under 0.1 µM and the Emax was over 95%.

`C[C@@H]1CN(c2cccc(-c3csc(NC(=O)CNC(=O)c4ccc5c(c4)[C@](C)(O)COC5)n3)c2)C[C@H](C)O1` [Compound 438, (S)-N-(2-((4-(3-((cis)-2,6-dimethylmorpholino)phenyl)thiazol-2-yl)amino)-2-oxoethyl)-4-hydroxy-4-methylisochromane-6-carboxamide]: on BRM (30 nM BRM, 400 μM ATP), the “BRM Max % Inhibition” value was over 95% and the half-maximal inhibitory concentration (IC50) lay in the range of 0.1 to 1 µM. In addition, at BRG-1 (30 nM BRG-1, 400 μM ATP), the IC50 lay in the range of 1 to 5 µM and the Emax is over 95%.

Consider `C[C@@H]1CN(c2cccc(-c3csc(NC(=O)CNC(=O)c4cccc([C@]5(C(F)F)CCOC5)c4)n3)c2)C[C@H](C)O1` [Compound 285], for which, on BRM, the “BRM Max % Inhibition” value is on record as over 95% and the IC50 is under 0.1 µM. Also, at BRG-1, the IC50 lay within 0.1 to 1 µM and the Emax is over 95%.

In the case of `C[C@@H]1CN(c2cccc(-c3csc(NC(=O)CNC(=O)c4ccc5c(c4)C(F)(C(F)F)CCO5)n3)n2)C[C@H](C)O1` (stereo in doubt) [Compound 273, (S)-4-(difluoromethyl)-N-(2-((4-(6-((cis)-2,6-dimethylmorpholino)pyridin-2-yl)thiazol-2-yl)amino)-2-oxoethyl)-4-fluorochromane-6-carboxamide], on BRM, the “BRM Max % Inhibition” value was over 95% and the IC50 was under 0.1 µM. Further, at BRG-1, the IC50 is 0.1 to 1 µM and the Emax was over 95%.

Regarding `COC(=O)N1CCC(c2csc(NC(=O)CNC(=O)c3ccc4c(c3)[C@](C)(F)COC4)n2)CC1` [Compound 281, methyl (S)-4-(2-(2-(4-fluoro-4-methylisochromane-6-carboxamido)acetamido)thiazol-4-yl)piperidine-1-carboxylate], at BRM, the “BRM Max % Inhibition” value is over 90% and the IC50 fell in the range of 0.1 to 1 µM. Further, at BRG-1, the half-maximal inhibitory concentration (IC50) is 1 to 5 µM and the Emax is over 90%.

Turning to `C[C@@H]1CN(c2cccc(-c3csc(NC(=O)CNC(=O)c4ccc5c(c4)C4(CCCC4=O)CC5)n3)c2)C[C@H](C)O1` (stereo partly drawn) [Compound 195, N-(2-((4-(3-((cis)-2,6-dimethylmorpholino)phenyl)thiazol-2-yl)amino)-2-oxoethyl)-2-oxo-2′,3′-dihydrospiro[cyclopentane-1,1′-indene]-6′-carboxamide], on BRM, the “BRM Max % Inhibition” value is reported as over 95% and the 50% inhibitory concentration (IC50) lay in the range of 0.1 to 1 µM. At BRG-1, the half-maximal inhibitory concentration (IC50) lay in the range of 1 to 5 µM and the Emax is over 70%.
